{
  "source": "paper PMC6006364",
  "about": "“D-Cateslytin: a new antifungal agent for the treatment of oral Candida albicans associated infections” (Scientific Reports, 2018)",
  "key": {"[1]": {"test_system": "Candida albicans (ATCC 10231)", "assay": "microbe, parasite or virus in culture", "format": "cell-based", "details": "for minimal inhibitory concentration (MIC): ATCC 10231, 24 h", "experimental": "Candida albicans (ATCC© 10231^TM) was cultured in Sabouraud medium (Sigma-Aldrich) supplemented with tetracycline (10 μg/mL) and cefotaxime (10 μg/mL) at 37 °C for 24 h. Candida albicans (OD600nm = 0,001) were plated in 96-well plates and treated either with different concentrations of the peptides of interest, and/or with different concentrations of voriconazole (VCZ) (Sigma-Aldrich). As a positive control, cells were treated with 10 μg/mL VCZ. After 24 hours incubation, yeast growth was assessed by optical density OD600nm using a spectrophotometer (Multiscan EX). The MIC of the antifungal agents, defined as the lowest concentration of drug able to inhibit 100% of the growth of a pathogen was determined using a modified Gompertz model."}, "[2]": {"test_system": "proteases secreted by Candida albicans", "assay": "Peptide stability in the supernatant of Candida albicans (HPLC)", "format": "in vitro ADME", "details": "peptide 186 μg/mL = 100 μM in 100 μL filtered supernatant, 37 °C, 24 h; RP-HPLC C18, 214 nm; repeated three times", "experimental": "The supernatant of Candida albicans was prepared as follows: a single colony of Candida albicans was resuspended in 5 mL of Sabouraud medium and incubated at 37 °C overnight. The culture was then centrifuged at 10000 g for 1 min and the supernatant was filtered using a 0.22 μm MillexH-GV (Merck Millipore). In order to check sterility, an aliquot of the supernatant was incubated at 37 °C for 48 h. The absence of growth was interpreted as a lack of viable microorganism.\n100 μL of supernatant was then directly incubated or not with L-Ctl or D-Ctl (186 μg/mL = 100 μM) at 37 °C for 24 h. As a control, each peptide (186 μg/mL = 100 μM) as well as the combination ½ MICD-Ctl + ¼ MICVCZ were incubated in water (100 μL) at 37 °C for 24 h. Samples were then separated using a Dionex HPLC system (Ultimate 3000) on a Nucleosil reverse-phase 300–5C18-column (4.6 × 250 mm; particle size: 5 μm; porosity, 300 Å) (Macherey Nagel). Absorbance was monitored at 214 nm and the solvent system consisted of 0.1% (v/v) TFA in water (solvent A) and 0.09% (v/v) TFA in 70% (v/v) acetonitrile-water (solvent B). Elution was performed at a flow rate of 700 μL/min with a gradient of solvent B as indicated on the chromatograms. Each peak was manually collected."}, "[3]": {"test_system": "Candida albicans (ATCC 10231)", "assay": "Antifungal combination test D-Ctl + voriconazole (FIC index)", "format": "cell-based", "experimental": "Candida albicans (ATCC© 10231^TM) was cultured in Sabouraud medium (Sigma-Aldrich) supplemented with tetracycline (10 μg/mL) and cefotaxime (10 μg/mL) at 37 °C for 24 h. Candida albicans (OD600nm = 0,001) were plated in 96-well plates and treated either with different concentrations of the peptides of interest, and/or with different concentrations of voriconazole (VCZ) (Sigma-Aldrich). As a positive control, cells were treated with 10 μg/mL VCZ. After 24 hours incubation, yeast growth was assessed by optical density OD600nm using a spectrophotometer (Multiscan EX). The efficiency of the combination between D-Ctl and VCZ was determined by the calculation of the Fractional inhibitory concentration index (FICI) according to the following formula: FICI = FICD-Ctl + […] = (MICD-Ctl in combination/MICD-Ctl alone) + ([…] in combination/[…] alone) . According to EUCAST[38], the effect of the combination is synergistic if FICI ≤ 0,5, additive if 0,5 < FICI ≤ 1, indifferent if 1 < FICI < 2 and antagonistic if FICI ≥ 2."}, "Candida albicans": {"test_system": "Candida albicans", "assay": "Time-lapse video microscopy of Candida albicans with rhodamine-labelled peptides", "format": "cell-based", "details": "for entry into C. albicans: 10 × MIC, 30 min incubation at 37 °C, fluorescence microscopy", "experimental": "Diluted precultures (1/1000) of Candida albicans were incubated for 1 hour at 37 °C without agitation in glass bottom μ-Dish^35mm,high (Ibidi) previously treated with poly-L-lysine. […] To perform time-lapse video microscopy, the peptides were removed and replaced by Sabouraud medium. Yeasts were then plated at 37 °C, 5% CO2, on a Nikon Eclipse Ti inverted microscope equipped with an Andor Zyla sCMOS camera and a 60X objective. To prevent evaporation, a layer of mineral oil (Sigma) was added on top of the media prior imaging. Images (fluorescence and phase contrast) were captured every 10 min for 20 hours using Nikon NIS-Elements AR software, and processed with ImageJ."}},
  "note": "Non-standard residues stand in square brackets, D forms with d. Residues, ends and D or L forms follow the SMILES beside them. No end group written: not given here. rhodamine = not defined here",
  "data": [
    {"compound": "CSCC[C@@H](NC(=O)[C@@H](CO)NC(=O)[C@H](N)CCCNC(=N)N)C(=O)N[C@H](CCCNC(=N)N)C(=O)N[C@H](CC(C)C)C(=O)N[C@H](CO)C(=O)N[C@H](Cc1ccccc1)C(=O)N[C@H](CCCNC(=N)N)C(=O)N[C@H](C)C(=O)N[C@H](CCCNC(=N)N)C(=O)NCC(=O)N[C@H](Cc1ccc(O)cc1)C(=O)NCC(=O)N[C@H](Cc1ccccc1)C(=O)N[C@H](CCCNC(=N)N)C(=O)O", "note": "[D-Ctl, D-Cateslytin] (H-[dR][dS][dM][dR][dL][dS][dF][dR][dA][dR]G[dY]G[dF][dR]-OH)", "values": [
      {"measurement": "minimal inhibitory concentration (MIC)", "setting": "[1]", "result": 5.5, "unit": "µg/mL"},
      {"measurement": "stability in the supernatant of Candida albicans", "setting": "[2]", "result": "still present"}
    ]},
    {"compound": "CSCC[C@H](NC(=O)[C@H](CO)NC(=O)[C@@H](N)CCCNC(=N)N)C(=O)N[C@@H](CCCNC(=N)N)C(=O)N[C@@H](CC(C)C)C(=O)N[C@@H](CO)C(=O)N[C@@H](Cc1ccccc1)C(=O)N[C@@H](CCCNC(=N)N)C(=O)N[C@@H](C)C(=O)N[C@@H](CCCNC(=N)N)C(=O)NCC(=O)N[C@@H](Cc1ccc(O)cc1)C(=O)NCC(=O)N[C@@H](Cc1ccccc1)C(=O)N[C@@H](CCCNC(=N)N)C(=O)O", "note": "[L-Ctl, Cateslytin] (H-RSMRLSFRARGYGFR-OH)", "values": [
      {"measurement": "minimal inhibitory concentration (MIC)", "setting": "[1]", "result": 7.9, "unit": "µg/mL"},
      {"measurement": "stability in the supernatant of Candida albicans", "setting": "[2]", "result": "the peak of L-Ctl disappeared"}
    ]},
    {"compound": "C[C@@H](c1ncncc1F)[C@](O)(Cn1cncn1)c1ccc(F)cc1F", "note": "[VCZ, voriconazole]", "values": [
      {"measurement": "MIC", "setting": "[1]; Candida albicans, ATCC10231, lowest concentration inhibiting 100% of C. albicans growth, Sabouraud medium, 24 h, OD600nm, average of at least three experiments, read-out: minimal inhibitory concentration (MIC)", "result": 0.07, "unit": "µg/mL"},
      {"measurement": "FIC (fractional inhibitory concentration) of the single agent in the combination", "setting": "[3]; MIC in combination / MIC alone", "result": 0.5},
      {"measurement": "fold decrease of VCZ concentration by adding D-Ctl", "setting": "[3]; with ½ MIC D-Ctl", "result": 4},
      {"measurement": "concentration of VCZ in the combination (¼ MIC VCZ)", "setting": "[3]; with ½ MIC D-Ctl, kills 100% of C. albicans", "result": 0.018, "unit": "µg/mL"}
    ]},
    {"compound": "Rho-D-Ctl: D-Ctl with a rhodamine moiety on the N-terminal end, used for video microscopy (rhodamine-[dR][dS][dM][dR][dL][dS][dF][dR][dA][dR]G[dY]G[dF][dR]; reading uncertain)", "values": [
      {"measurement": "entry into C. albicans", "setting": "Candida albicans", "result": "able to enter"},
      {"measurement": "effect on colonies totally invaded", "setting": "Candida albicans; Rho-D-Ctl 10 × MIC (55 μg/mL), time-lapse video microscopy", "result": "systematic arrest of fungal growth and ongoing cellular divisions"}
    ]},
    {"compound": "Rho-L-Ctl: L-Ctl with a rhodamine moiety on the N-terminal end, used for video microscopy (rhodamine-RSMRLSFRARGYGFR; reading uncertain)", "values": [
      {"measurement": "entry into C. albicans", "setting": "Candida albicans", "result": "able to enter"}
    ]}
  ]
}
